According to publication PMC6449294, “SNAPshots of the MCHR1: a Comparison Between the PET-Tracers [^18F]FE@SNAP and [^11C]SNAP-7941” (Molecular Imaging and Biology, 2018):

Tests used:
[1] = target: T1, human MCHR2 (Homo sapiens, UniProt Q969V1); experiment: Kinetic real-time cell-binding study (LigandTracer) on CHO-K1-hMCHR2 cells; assay type: cell-based; settings: for Selectivity over MCHR2: CHO-K1-hMCHR1 vs CHO-K1-hMCHR2 living cells, Yes/No; for accumulation on CHO-K1-hMCHR2 cells: real-time cell binding, result in words
T1 construct: host or cells: CHO-K1
Method: (§1) Kinetic real-time cell-binding studies were performed on adherent Chinese hamster ovary (CHO-K1) cells (negative control) and CHO-K1 cells stably expressing the human MCHR1 or MCHR2 (PerkinElmer®; Waltham, MA, USA) with [^11C]SNAP-7941 and [^18F]FE@SNAP as previously reported. The cells were cultured in Ham’s F-12 medium (Gibco®, Life Technologies) with additives (1 % penicillin-streptomycin-glutamine (PSG), 10 % fetal bovine serum (FBS), and 300-μg/m Geneticin (G-418)) and incubated in a humidified 5 % CO2 atmosphere at 37 °C. For the preparation of the binding experiment, approximately 10^6 cells were seeded as a monolayer on the bottom of a tilted cell culture dish (100 mm × 20 mm, CELLSTAR®, Greiner Bio-One) and incubated with 2-ml medium for 24 h to avoid a spreading of the cells over the whole Petri dish. In the next step, the medium was discarded and the Petri dish was placed in a horizontal position with 10-ml medium for additional 24 h. Afterwards, the binding experiment was performed at ambient temperature with LigandTracer® Yellow (Ridgeview Instruments AB, Uppsala, Sweden) using 3-ml fresh medium (Ham’s F-12, serum-free). Unspecific radiotracer uptake was determined with native CHO-K1 cells. The experiments were initiated with baseline measurements for 10–15 min followed by radioligand incubation of [^11C]SNAP-7941 and [^18F]FE@SNAP. Binding to the seeded cells was ensured by adding different concentrations of the radiotracer (0.05–1000 nM). Association-time curves were monitored in real-time until the binding equilibrium was achieved. The observed rate constant of the association reaction (kobs) was determined using non-linear regression curve fitting algorithms implemented in GraphPad Prism 6.0 (GraphPad Software, Inc., San Diego, CA, USA), as previously reported. Cell survival was continuously examined using the perimeter trace (signal vs. dish position) of the LigandTracer® 1.0.1 software (Ridgeview Instruments AB, Uppsala, Sweden).

[2] = test system: native CHO-K1 cells; experiment: Kinetic real-time cell-binding study on native CHO-K1 cells (negative control, unspecific uptake); assay type: cell-based, Chinese hamster; settings: result in words
Method: as §1, with “Afterwards, the binding experiment was performed at ambient temperature with LigandTracer® Yellow (Ridgeview Instruments AB, Uppsala, Sweden) using 3-ml fresh medium (Ham’s F-12, serum-free).” left out, “The experiments were initiated with baseline measurements for 10–15 min followed by radioligand incubation of [^11C]SNAP-7941 and [^18F]FE@SNAP. Binding to the seeded cells was ensured by adding different concentrations of the radiotracer (0.05–1000 nM).” left out, “Cell survival was continuously examined using the perimeter trace (signal vs. dish position) of the LigandTracer® 1.0.1 software (Ridgeview Instruments AB, Uppsala, Sweden).” left out

[3] = target: MCHR1; design: method as in PMID 28808288; settings: previous experiments; read-out: Affinity to MCHR1 (Ki); cited from earlier work
[4] = target: T2, MCHR1 (Rattus norvegicus, UniProt P97639); experiment: Small animal PET displacement study with (±)-SNAP-7941 (time-activity curves); assay type: in vivo; settings: rats; for change of brown adipose tissue (BAT) TAC after administration of (±)-SNAP-7941 / change of lung TAC after displacement: 15 mg/kg (±)-SNAP-7941; for displacement in whole brain (TAC): 15 mg/kg (±)-SNAP-7941 i.v. 15 or 20 min after tracer
T2 construct: from tissue; host or cells: living Sprague-Dawley rats (PET) and their organs after sacrifice
Method: Ten-week-old male rats (412 ± 58 g, Sprague-Dawley, HIM:OFA, n = 30) and 12-week-old male mice (24 ± 6 g, BALB/cAnNRj, n = 7) were purchased from the Division of Laboratory Animal Science and Genetics, Himberg, Austria. Animals were kept under conventional housing conditions (22 ± 1 °C; 40–70 % humidity) with food and water supply ad libitum and 12-h day/night cycle. All animals were treated according to the European Union rules on animal care and respective animal experiments were approved by the Austrian Ministry of Sciences, Research and Economy (BMWFW-66.009/0029-WF/V/3b/20159). For in vivo imaging, animals were anesthetized using 1.5–2 % isoflurane mixed with oxygen (1.5–2 l/min) to avoid movement during the examination. Anesthesia as well as vital parameters were monitored during the time interval of PET acquisition. Radioligands and non-labeled compounds were administered intravenously via the lateral tail vein.
Anesthetized rats and mice were immobilized in a multimodal animal carrier unit (MACU; medres®—medical research GmbH, Cologne, Germany). The body temperature was preserved at 37 °C throughout the whole experiment. Rats received either [^11C]SNAP-7941 or [^18F]FE@SNAP, followed by an injection of (±)-SNAP-7941 (15-mg/kg body weight; displacement study; n = 4 for each radiotracer) or the respective solvent serving as the vehicle (baseline condition; n = 4 for each radiotracer). The MCHR1 antagonist, (±)-SNAP-7941, and the vehicle were administered either 15 ([^11C]SNAP-7941) or 20 min ([^18F]FE@SNAP) after the radiotracer application via the lateral tail vein. To investigate a potential binding to the P-glycoprotein (P-gp) and/or breast cancer resistance protein (BCRP) brain efflux transporter system, rats as well as mice were pretreated either with the P-gp/BCRP inhibitor TQD (15 mg/kg body weight; P-gp/BCRP inhibition group; rats: n = 4 for each radiotracer; mice: n = 4 for [^18F]FE@SNAP) or the respective solvent (baseline condition; rats: n = 3 for each radiotracer; mice: n = 3 for [^18F]FE@SNAP)). Mice received the P-gp/BCRP inhibitor 30 min and rats 60 min before the radiotracer application. Experiments were initiated with a 7-min cone beam attenuation CT (CBCT) of the brain (full rotation, 360 projections; binning 4 × 4; 80 kV; 500 μA; 200-ms exposure time) using a small animal cone beam computed tomography (CBCT) scanner (Siemens Inveon microSPECT/CT, Siemens Medical Solutions, Knoxville, USA). Subsequently, the animals were positioned in the Siemens Inveon microPET scanner (Siemens Medical Solution, Knoxville, USA). The radiotracers were injected intravenously, and dynamic PET imaging was performed for 45 min (rats) in case of [^11C]SNAP-7941 (77.46 ± 5.41 MBq; molar activity 76.66 ± 23.58 GBq/μmol; radiochemical purity > 99 %) and 30 min (mice)—60 min (rats) for [^18F]FE@SNAP (47.08 ± 6.24 MBq; molar activity 22.18 ± 9.72 GBq/μmol; radiochemical purity > 90 %).
Image reconstruction of the CT raw data was performed with a Feldkamp algorithm using a ramp filter followed by standard rat beam-hardening correction and noise reduction (matrix size 1024 × 1024; effective pixel size: 97.56 μm). All CT image data was calibrated to Hounsfield units (HU). PET list mode data were sorted into three-dimensional sinograms according to the following frame sequences, [^11C]SNAP-7941: 1 × 3 s, 3 × 2 s, 1 × 6 s, 1 × 15 s, 1 × 35 s, 1 × 145 s, 1 × 270 s, 1 × 285 s, 1 × 165 s, 3 × 30 s, 1 × 120 s, 1 × 240 s, 1 × 420 s, 1 × 900 s and for [^18F]FE@SNAP: 1 × 2 s, 1 × 3 s, 1 × 5 s, 3 × 10 s, 1 × 20 s, 1 × 60 s, 1 × 120 s, 4 × 240 s, 4 × 600 s. PET image reconstruction were performed using an OSEM 3D/OP-MAP with scatter correction and a ramp filter (matrix size 128 × 128). Image data were normalized and corrected for random events, dead time, and radioactive decay. A calibration factor was applied to convert the activity information into absolute concentration units. […]

T2 sequence (P97639 whole entry): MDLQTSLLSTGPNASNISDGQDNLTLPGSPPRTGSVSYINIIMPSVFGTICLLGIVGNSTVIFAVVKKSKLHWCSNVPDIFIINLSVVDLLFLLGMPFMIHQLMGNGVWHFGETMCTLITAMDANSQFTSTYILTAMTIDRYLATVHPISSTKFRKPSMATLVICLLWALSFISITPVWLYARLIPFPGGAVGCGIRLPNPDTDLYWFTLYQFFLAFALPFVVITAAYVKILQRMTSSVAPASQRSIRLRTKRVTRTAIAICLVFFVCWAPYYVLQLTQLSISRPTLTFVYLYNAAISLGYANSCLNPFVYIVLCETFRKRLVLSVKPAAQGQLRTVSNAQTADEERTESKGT
T1 sequence (Q969V1 whole entry): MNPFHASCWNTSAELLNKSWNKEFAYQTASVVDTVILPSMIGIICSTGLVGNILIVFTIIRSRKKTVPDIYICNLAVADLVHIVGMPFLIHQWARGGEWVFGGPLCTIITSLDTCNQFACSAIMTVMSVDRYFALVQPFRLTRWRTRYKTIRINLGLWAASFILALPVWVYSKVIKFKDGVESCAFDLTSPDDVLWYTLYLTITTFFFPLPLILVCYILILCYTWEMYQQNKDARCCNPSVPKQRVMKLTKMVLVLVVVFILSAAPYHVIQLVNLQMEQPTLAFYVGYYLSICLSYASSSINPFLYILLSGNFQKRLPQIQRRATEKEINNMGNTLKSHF

Structure (SMILES)	Selectivity over MCHR2 [1]	observed association rate constant (kobs) ([1]; CHO-K1-hMCHR2 cells, ambient temperature, radiotracer 0.05–1000 nM, mean ± SEM)	accumulation on CHO-K1-hMCHR2 cells [1]	accumulation on native CHO-K1 cells [2]	Ki [3]	change of brown adipose tissue (BAT) TAC after administration of (±)-SNAP-7941 [4]	change of lung TAC after displacement [4]	displacement in whole brain (TAC) [4]
COCC1=C(C(=O)OCC[18F])C(c2ccc(F)c(F)c2)N(C(=O)NCCCN2CCC(c3cccc(NC(C)=O)c3)CC2)C(=O)N1 (stereo not drawn) [[^18F]FE@SNAP]	No	0.0918 ± 0.0031 min⁻¹	exhibited accumulation	negligible accumulation	9.98 ± 1.12 nM	increased uptake	drop in the TAC	displacement could not be detected
COCC1=C(C(=O)O[11CH3])C(c2ccc(F)c(F)c2)N(C(=O)NCCCN2CCC(c3cccc(NC(C)=O)c3)CC2)C(=O)N1 (stereo not drawn) [[^11C]SNAP-7941]	Yes	–	negligible accumulation	negligible accumulation	3.91 ± 0.74 nM	increased uptake	drop in the TAC	clear displacement
